A word on the MIC: it is the lowest concentration found to suppress growth.

Values after ≈ are worked out from the molar mass of the structure shown. Like-named read-outs stand apart in the source and are kept apart here.

This note sets out measurements from patent US7342005B2, “Antibiotic compounds” (AstraZeneca UK Limited, priority 1992, dated 2008).

What all share (test): MIC by agar-dilution, Diagnostic Sensitivity Test
Assay type in all cases: cell-based
Details in all cases: inoculum 10^4 CFU/spot

Assay [1] deals with E. coli TEM. From the text: (§1) The following results were obtained for representative compounds on a standard in vitro test system using Diagnostic Sensitivity Test. The antibacterial activity is described in terms of the minimum inhibitory concentration (MIC) determined by the agar-dilution technique with an inoculum size of 10^4 CFU/spot.
For assay [2], the system named is Enterobacter cloacae 029.
Text: as §1

Assay [3] concerns Enterobacter cloacae 108.
Text: as §1

Assay [4] relates to S. aureus 147N.
Text: as §1

For `C[C@@H](O)[C@H]1C(=O)N2C(C(=O)O)=C(S[C@@H]3CN[C@H](C(=O)Nc4cc(O)cc(C(=O)O)c4)C3)[C@H](C)[C@H]12` [Example 1, (1R,5S,6S,8R,2′S,4′S)-2-(2-(3-Carboxy-5-hydroxyphenylcarbamoyl)-pyrrolidin-4-yl-thio)-6-(1-hydroxyethyl)-1-methylcarbapenem-3-carboxylic acid], the MIC in assay [1] amounted to 0.03 µg/mL (≈ 0.061 µM); in assay [2], 0.06 µg/mL (≈ 0.122 µM); in assay [3], 1.00 µg/mL (≈ 2.03 µM); in assay [4], 0.25 µg/mL (≈ 0.509 µM).
Taken in the same sequence, the figures for `CC(O)C1C(=O)N2C(C(=O)O)=C(SC3CNC(C(=O)Nc4ccc(Cl)c(C(=O)O)c4)C3)C(C)[C@H]12` (stereo partly drawn) [Example 2, (1R,5S,6S,8R,2′S,4′S)-2-(2-(3-Carboxy-4-chlorophenylcarbamoyl)-pyrrolidin-4-ylthio)-6-(1-hydroxyethyl)-1-methylcarbapenem-3-carboxylic acid] were 0.02 µg/mL (≈ 0.0392 µM), 0.03 µg/mL (≈ 0.0588 µM), 1.00 µg/mL (≈ 1.96 µM) and 0.50 µg/mL (≈ 0.98 µM).
Taken in the same sequence, the figures for `CC(O)C1C(=O)N2C(C(=O)O)=C(SC3CNC(C(=O)Nc4cccc(C(=O)O)c4)C3)C(C)[C@H]12` (stereo partly drawn) [Example 4, (1R,5S,6S,8R,2′S,4′S)-2-(2-(3-Carboxyphenylcarbamoyl)pyrrolidin-4-ylthio) -6-(1-hydroxyethyl)-1-methylcarbapenem-3-carboxylic acid] were 0.02 µg/mL (≈ 0.0421 µM), 0.03 µg/mL (≈ 0.0631 µM), 0.50 µg/mL (≈ 1.05 µM) and 0.25 µg/mL (≈ 0.526 µM).
For the compound `C[C@@H](O)[C@H]1C(=O)N2C(C(=O)O)=C(S[C@@H]3CN[C@H](C(=O)Nc4ccc(O)c(C(=O)O)c4)C3)[C@H](C)[C@H]12` [Example 10, (1R,5S,6S,8R,2′S,4′S)-2-(2-(3-Carboxy-4-hydroxyphenylcarbamoyl)pyrrolidin-4-ylthio)-6-(1-hydroxyethyl)-1-methylcarbapenem-3-carboxylic acid], the minimal inhibitory concentration (MIC) stood at 0.01 µg/mL (≈ 0.0203 µM) in assay [1], 0.01 µg/mL (≈ 0.0203 µM) in assay [2], 0.25 µg/mL (≈ 0.509 µM) in assay [3] and 0.13 µg/mL (≈ 0.264 µM) in assay [4].
In the case of `CO/N=C(\C(=O)N[C@@H]1C(=O)N2C(C(=O)O)=C(CSc3nc(=O)c(=O)[nH]n3C)CS[C@H]12)c1csc(N)n1` [ceftriaxone, reference compound], the MIC in assay [1] (Escherichia coli, read-out: MIC) stood at 0.03 µg/mL (≈ 0.0541 µM); in assay [2] (read-out: MIC), 0.06 µg/mL (≈ 0.108 µM); in assay [3] (read-out: MIC) it was 32 µg/mL (≈ 57.7 µM); in assay [4] (Staphylococcus aureus, read-out: MIC), 2 µg/mL (≈ 3.61 µM).
